# Earlier results as cited in US20240066044A1, “METHODS AND COMPOSITIONS FOR INCREASING NAD+ METABOLOME IN HEALTHY MIDDLE-AGED POPULATION” (Bioenergy Life Science, Inc., priority 2021, published 2024).
# Like-named read-outs stand apart in the source and are kept apart here.
smiles,measurement,setting,value
"NC(=O)c1cccnc1 [NAM, nicotinamide]",doses at which NAM is ineffective for boosting NAD+,NAD+,below 90 mg per day
same,daily tolerable upper dietary intake,Canada,500 mg
same,daily tolerable upper dietary intake,EU,900 mg
same,daily tolerable upper dietary intake,Japan,5 mg/kg
